The test system of the assay is MV-4-11 cells. The experiment in a line: Gene expression microarray analysis (Affymetrix PrimeView) and GSEA. In kind it is cell-based, human. Details: RFU PODN (11730768_x_at) / Fold change /veh PODN (11730768_x_at) / RFU LINC00158 (11744669_a_at) / Fold change /veh LINC00158 (11744669_a_at) / RFU DUSP10 (11751237_a_at) / Fold change /veh DUSP10 (11751237_a_at) / RFU ID3 (11757404_x_at) / Fold change /veh ID3 (11757404_x_at) / RFU PLEKHG5 (11737974_s_at) / Fold change /veh PLEKHG5 (11737974_s_at) / RFU LRRC4B (11730491_at) / Fold change /veh LRRC4B (11730491_at) / RFU GIMAP4 (11747438_a_at) / Fold change /veh GIMAP4 (11747438_a_at) / RFU KRT8 (11758183_x_at) / Fold change /veh KRT8 (11758183_x_at) / RFU CNN1 (11734310_a_at) / Fold change /veh CNN1 (11734310_a_at) / RFU VPS37D (11726825_at) / Fold change /veh VPS37D (11726825_at) / RFU C10orf10 (11716522_x_at) / Fold change /veh C10orf10 (11716522_x_at) / RFU KIR2DL2 /// KIR2DL4 /// KIR2DL5A /// KIR2DL5B /// KIR2DS1 /// KIR2DS2 /// KIR2DS3 /// KIR2DS4 /// KIR3DL3 /// KIR3DL3 /// KIR3DS1 (11738374_at) / Fold change /veh KIR2DL2 /// KIR2DL4 /// KIR2DL5A /// KIR2DL5B /// KIR2DS1 /// KIR2DS2 /// KIR2DS3 /// KIR2DS4 /// KIR3DL3 /// KIR3DL3 /// KIR3DS1 (11738374_at) / RFU C1QL1 (11718748_at) / Fold change /veh C1QL1 (11718748_at) / RFU TMPRSS4 (11747572_a_at) / Fold change /veh TMPRSS4 (11747572_a_at) / RFU HAMP (11756126_x_at) / Fold change /veh HAMP (11756126_x_at) / RFU RNFT2 (11725882_a_at) / Fold change /veh RNFT2 (11725882_a_at) / RFU NR4A2 (11747474_a_at) / Fold change /veh NR4A2 (11747474_a_at) / RFU ABCC12 (11746883_a_at) / Fold change /veh ABCC12 (11746883_a_at) / RFU TMEM136 (11760407_x_at) / Fold change /veh TMEM136 (11760407_x_at) / RFU CLDN22 /// WWC2 (11732394_at) / Fold change /veh CLDN22 /// WWC2 (11732394_at) / RFU HLA-DPB1 (11760878_x_at) / Fold change /veh HLA-DPB1 (11760878_x_at) / RFU SPINT1 (11716480_a_at) / Fold change /veh SPINT1 (11716480_a_at) / RFU GAP43 (11754022_s_at) / Fold change /veh GAP43 (11754022_s_at) / RFU A4GNT (11735810_at) / Fold change /veh A4GNT (11735810_at) / RFU PRB3 (11715151_x_at) / Fold change /veh PRB3 (11715151_x_at) / RFU TUBB4B (11761932_at) / Fold change /veh TUBB4B (11761932_at) / RFU CAPN14 (11732068_a_at) / Fold change /veh CAPN14 (11732068_a_at) / RFU TMCC2 (11721928_a_at) / Fold change /veh TMCC2 (11721928_a_at) / RFU IRGQ (11745062_a_at) / Fold change /veh IRGQ (11745062_a_at) / RFU FAM174B (11720279_a_at) / Fold change /veh FAM174B (11720279_a_at) / RFU TMPRSS4 (11748680_a_at) / Fold change /veh TMPRSS4 (11748680_a_at) / RFU FAM212B (11763350_a_at) / Fold change /veh FAM212B (11763350_a_at) / RFU PLEKHG5 (11743358_a_at) / Fold change /veh PLEKHG5 (11743358_a_at) / RFU ZSCAN30 (11745921_a_at) / Fold change /veh ZSCAN30 (11745921_a_at) / RFU CMKLR1 (11741424_a_at) / Fold change /veh CMKLR1 (11741424_a_at) / RFU LOC101060620 /// MAPK8IP1 (11723275_at) / Fold change /veh LOC101060620 /// MAPK8IP1 (11723275_at) / RFU SPTSSB (11747773_x_at) / Fold change /veh SPTSSB (11747773_x_at) / RFU PRSS12 (11739890_at) / Fold change /veh PRSS12 (11739890_at) / RFU BIN1 (11741810_x_at) / Fold change /veh BIN1 (11741810_x_at) / RFU WNT11 (11732464_a_at) / Fold change /veh WNT11 (11732464_a_at) / RFU C10orf10 (11716521_a_at) / Fold change /veh C10orf10 (11716521_a_at) / RFU C5orf56 (11738089_at) / Fold change /veh C5orf56 (11738089_at) / RFU CYB561 (11721691_x_at) / Fold change /veh CYB561 (11721691_x_at) / RFU ANKRD19P (11752326_a_at) / Fold change /veh ANKRD19P (11752326_a_at) / RFU OR2T12 /// OR2T33 /// OR2T8 (11738714_s_at) / Fold change /veh OR2T12 /// OR2T33 /// OR2T8 (11738714_s_at) / RFU VCAN (11748164_a_at) / Fold change /veh VCAN (11748164_a_at) / RFU JSRP1 (11732532_at) / Fold change /veh JSRP1 (11732532_at) / RFU KRTAP10-11 (11738290_x_at) / Fold change /veh KRTAP10-11 (11738290_x_at) / RFU MYO3A (11730013_a_at) / Fold change /veh MYO3A (11730013_a_at) / RFU EBF3 (11725865_a_at) / Fold change /veh EBF3 (11725865_a_at) / RFU CAMK2N1 (11719241_x_at) / Fold change /veh CAMK2N1 (11719241_x_at) / RFU C5orf56 (11738088_a_at) / Fold change /veh C5orf56 (11738088_a_at) / RFU OLFML3 (11715873_a_at) / Fold change /veh OLFML3 (11715873_a_at) / RFU LOC100653217 /// NTM (11731650_a_at) / Fold change /veh LOC100653217 /// NTM (11731650_a_at) / RFU MAPK11 (11762145_a_at) / Fold change /veh MAPK11 (11762145_a_at) / RFU FIZ1 (11724087_x_at) / Fold change /veh FIZ1 (11724087_x_at) / RFU OASL (11726364_x_at) / Fold change /veh OASL (11726364_x_at) / RFU SOX15 (11748057_x_at) / Fold change /veh SOX15 (11748057_x_at) / RFU CD79A (11719716_a_at) / Fold change /veh CD79A (11719716_a_at) / RFU HIST1H1D (11736915_at) / Fold change /veh HIST1H1D (11736915_at) / RFU CASKIN2 (11723855_a_at) / Fold change /veh CASKIN2 (11723855_a_at) / RFU LOC730098 (11760151_x_at) / Fold change /veh LOC730098 (11760151_x_at) / RFU OR4N2 (11742367_at) / Fold change /veh OR4N2 (11742367_at) / RFU PRRT2 (11749266_a_at) / Fold change /veh PRRT2 (11749266_a_at) / RFU SNX32 (11753110_a_at) / Fold change /veh SNX32 (11753110_a_at) / RFU CDHR5 (11726645_a_at) / Fold change /veh CDHR5 (11726645_a_at) / RFU RCAN1 (11760418_a_at) / Fold change /veh RCAN1 (11760418_a_at) / RFU FAM167A (11723789_a_at) / Fold change /veh FAM167A (11723789_a_at) / RFU FAM26E (11764081_at) / Fold change /veh FAM26E (11764081_at) / RFU ISYNA1 (11749810_s_at) / Fold change /veh ISYNA1 (11749810_s_at) / RFU ACY1 (11761880_at) / Fold change /veh ACY1 (11761880_at) / RFU 11764098_at / Fold change /veh 11764098_at / RFU SAMD14 (11745864_x_at) / Fold change /veh SAMD14 (11745864_x_at) / RFU NPB (11741838_a_at) / Fold change /veh NPB (11741838_a_at) / RFU TMPRSS6 (11731388_a_at) / Fold change /veh TMPRSS6 (11731388_a_at) / RFU KRTAP10-2 (11738614_at) / Fold change /veh KRTAP10-2 (11738614_at) / RFU ARHGAP8 /// PRR5-ARHGAP8 (11727945_x_at) / Fold change /veh ARHGAP8 /// PRR5-ARHGAP8 (11727945_x_at) / RFU KRTAP5-7 /// NADSYN1 (11734609_at) / Fold change /veh KRTAP5-7 /// NADSYN1 (11734609_at) / RFU RASL12 (11751679_a_at) / Fold change /veh RASL12 (11751679_a_at) / RFU CDKN2B (11736163_a_at) / Fold change /veh CDKN2B (11736163_a_at) / RFU PRF1 (11729649_at) / Fold change /veh PRF1 (11729649_at) / RFU, ZNF638 /// ZNF638-IT1 / Fold change vs veh, ZNF638 /// ZNF638-IT1 / RFU, PANK3 / Fold change vs veh, PANK3 / RFU, SH3YL1 / Fold change vs veh, SH3YL1 / RFU, ZEB2 / Fold change vs veh, ZEB2 / RFU, NRIP1 / Fold change vs veh, NRIP1 / RFU, PTTG1IP / Fold change vs veh, PTTG1IP / RFU, CAPN2 / Fold change vs veh, CAPN2 / RFU, MED14 / Fold change vs veh, MED14 / RFU, SNORA58 / Fold change vs veh, SNORA58 / RFU, C1orf63 / Fold change vs veh, C1orf63 / RFU, LRRFIP1 / Fold change vs veh, LRRFIP1 / RFU, NDUFAF7 / Fold change vs veh, NDUFAF7 / RFU, SLC12A2 / Fold change vs veh, SLC12A2 / RFU, IBTK / Fold change vs veh, IBTK / RFU, ESF1 / Fold change vs veh, ESF1 / Fold change vs veh, TMEM50B / RFU, TAOK1 / Fold change vs veh, TAOK1 / RFU, ACBD3 / Fold change vs veh, ACBD3 / RFU, TMA16 / Fold change vs veh, TMA16 / RFU, RWDD3 / Fold change vs veh, RWDD3 / RFU, BCAT1 / Fold change vs veh, BCAT1 / RFU, EDEM3 / Fold change vs veh, EDEM3 / RFU, TMEM33 / Fold change vs veh, TMEM33 / RFU, WDR75 / Fold change vs veh, WDR75 / RFU, AHCTF1 / Fold change vs veh, AHCTF1 / RFU, TFRC / Fold change vs veh, TFRC / RFU, ZDHHC17 / Fold change vs veh, ZDHHC17 / RFU, NOM1 / Fold change vs veh, NOM1 / RFU, ARL8B / Fold change vs veh, ARL8B / RFU, ZBTB11 / Fold change vs veh, ZBTB11 / RFU, TAMM41 / Fold change vs veh, TAMM41 / RFU, KIAA1704 /// LOC100996395 / Fold change vs veh, KIAA1704 /// LOC100996395 / RFU, ING1 / Fold change vs veh, ING1 / RFU, TRMT61B / Fold change vs veh, TRMT61B / RFU, FUBP3 / Fold change vs veh, FUBP3 / RFU, TP53 / Fold change vs veh, TP53 / RFU, TNKS2 / Fold change vs veh, TNKS2 / RFU, ZFP14 / Fold change vs veh, ZFP14 / RFU, ACTR2 / Fold change vs veh, ACTR2 / RFU, PPP3R1 / Fold change vs veh, PPP3R1 / RFU, PIK3R1 / Fold change vs veh, PIK3R1 / RFU, HNRNPA1 / Fold change vs veh, HNRNPA1 / RFU, RNF170 / Fold change vs veh, RNF170 / RFU, ZNF28 / Fold change vs veh, ZNF28 / RFU, RNGTT / Fold change vs veh, RNGTT / RFU, OGT / Fold change vs veh, OGT / RFU, BRD1 / Fold change vs veh, BRD1 / RFU, MARS / Fold change vs veh, MARS / RFU, ZNF655 / Fold change vs veh, ZNF655 / RFU, FAHD1 / Fold change vs veh, FAHD1 / RFU, BDP1 / Fold change vs veh, BDP1 / RFU, LRRCC1 / Fold change vs veh, LRRCC1 / RFU, ARID1A / Fold change vs veh, ARID1A / RFU, ZNF146 / Fold change vs veh, ZNF146 / RFU, ZNF330 / Fold change vs veh, ZNF330 / RFU, GPN3 / Fold change vs veh, GPN3 / RFU, C9orf123 / Fold change vs veh, C9orf123 / RFU, N4BP2L2 / Fold change vs veh, N4BP2L2 / RFU, ARFIP1 / Fold change vs veh, ARFIP1 / RFU, FAM179B / Fold change vs veh, FAM179B / RFU, BCL10 / Fold change vs veh, BCL10 / RFU, UHRF1BP1L / Fold change vs veh, UHRF1BP1L / RFU, BET1 / Fold change vs veh, BET1 / RFU, CNOT2 / Fold change vs veh, CNOT2 / RFU, ZNF268 / Fold change vs veh, ZNF268 / Fold change vs veh, ZNF507 / RFU, DGCR2 / Fold change vs veh, DGCR2 / RFU, WDSUB1 / Fold change vs veh, WDSUB1 / Fold change vs veh, HSP90B1 /// MIR3652 / RFU, ADSS / Fold change vs veh, ADSS / RFU, GK / Fold change vs veh, GK / RFU, ZNF148 / Fold change vs veh, ZNF148 / RFU, TAF9 / Fold change vs veh, TAF9 / RFU, SLC1A5 / Fold change vs veh, SLC1A5 / RFU, SLMO2 / Fold change vs veh, SLMO2 / RFU, ABCC4 / Fold change vs veh, ABCC4 / RFU, LOC101060439 /// RAP1B / Fold change vs veh, LOC101060439 /// RAP1B / RFU, RFX7 / Fold change vs veh, RFX7 / RFU, GTPBP10 / Fold change vs veh, GTPBP10 / RFU, CNEP1R1 / Fold change vs veh, CNEP1R1 / RFU, BIVM-ERCC5 /// ERCC5 / Fold change vs veh, BIVM-ERCC5 /// ERCC5 / RFU, ILF3 / Fold change vs veh, ILF3 / RFU 11762660_at / Fold change /veh 11762660_at / RFU VCAN (11757783_s_at) / Fold change /veh VCAN (11757783_s_at) / RFU DDX43 (11728927_at) / Fold change /veh DDX43 (11728927_at) / RFU KRT8 (11758188_x_at) / Fold change /veh KRT8 (11758188_x_at) / RFU NKD1 (11759106_at) / Fold change /veh NKD1 (11759106_at) / RFU SRD5A1 (11742802_a_at) / Fold change /veh SRD5A1 (11742802_a_at) / RFU TPSAB1 /// TPSB2 (11721975_s_at) / Fold change /veh TPSAB1 /// TPSB2 (11721975_s_at) / RFU GSTM3 (11746129_a_at) / Fold change /veh GSTM3 (11746129_a_at) / RFU IL23R (11737362_x_at) / Fold change /veh IL23R (11737362_x_at) / RFU TMEM51 (11727254_a_at) / Fold change /veh TMEM51 (11727254_a_at) / RFU PIWIL2 (11732686_x_at) / Fold change /veh PIWIL2 (11732686_x_at) / RFU ORM1 (11744905_x_at) / Fold change /veh ORM1 (11744905_x_at) / RFU CCDC152 (11743942_at) / Fold change /veh CCDC152 (11743942_at) / RFU ECM1 (11717891_a_at) / Fold change /veh ECM1 (11717891_a_at) / RFU IL23R (11748794_a_at) / Fold change /veh IL23R (11748794_a_at) / RFU TNFAIP8L3 (11732012_x_at) / Fold change /veh TNFAIP8L3 (11732012_x_at) / RFU MBOAT4 (11741988_at) / Fold change /veh MBOAT4 (11741988_at) / RFU 11764193_at / Fold change /veh 11764193_at / RFU TMEM53 (11763286_at) / Fold change /veh TMEM53 (11763286_at) / RFU MAGEB2 (11727129_at) / Fold change /veh MAGEB2 (11727129_at) / RFU TMEM200A (11744735_a_at) / Fold change /veh TMEM200A (11744735_a_at) / RFU CCDC152 (11751479_a_at) / Fold change /veh CCDC152 (11751479_a_at) / RFU FAM211A (11726209_a_at) / Fold change /veh FAM211A (11726209_a_at) / RFU RGS16 (11746705_a_at) / Fold change /veh RGS16 (11746705_a_at) / RFU VCAN (11755009_s_at) / Fold change /veh VCAN (11755009_s_at) / RFU RHOB (11743442_s_at) / Fold change /veh RHOB (11743442_s_at) / RFU RGS16 (11720943_a_at) / Fold change /veh RGS16 (11720943_a_at) / RFU RGS16 (11720944_at) / Fold change /veh RGS16 (11720944_at) / RFU, VPS4B / Fold change vs veh, VPS4B / RFU, CREB1 / Fold change vs veh, CREB1 / RFU, DNAJC13 / Fold change vs veh, DNAJC13 / RFU, GNAQ / Fold change vs veh, GNAQ / RFU, CDK5R1 / Fold change vs veh, CDK5R1 / RFU, ZRANB3 / Fold change vs veh, ZRANB3 / RFU, CUL4A / Fold change vs veh, CUL4A / RFU, CCNY / Fold change vs veh, CCNY / RFU, UFL1 / Fold change vs veh, UFL1 / RFU, COG3 / Fold change vs veh, COG3 / RFU, DIAPH2 / Fold change vs veh, DIAPH2 / RFU, SKA2 / Fold change vs veh, SKA2 / RFU, AFF3 / Fold change vs veh, AFF3 / RFU, LMF1 / Fold change vs veh, LMF1 / RFU, IPO11 / Fold change vs veh, IPO11 / RFU, DFFB / Fold change vs veh, DFFB / RFU, FOXP1 / Fold change vs veh, FOXP1 / RFU, CARD8 / Fold change vs veh, CARD8 / RFU, STRN3 / Fold change vs veh, STRN3 / RFU, ADK / Fold change vs veh, ADK / RFU, RASSF2 / Fold change vs veh, RASSF2 / RFU, WIPF1 / Fold change vs veh, WIPF1 / RFU, LARP1B / Fold change vs veh, LARP1B / RFU, RASA1 / Fold change vs veh, RASA1 / RFU, RB1 / Fold change vs veh, RB1 / RFU, PPFIA1 / Fold change vs veh, PPFIA1 / RFU, MAT2A / Fold change vs veh, MAT2A / RFU, CCT5 / Fold change vs veh, CCT5 / RFU, WDR92 / Fold change vs veh, WDR92 / RFU, CUX1 / Fold change vs veh, CUX1 / RFU, TTC7A / Fold change vs veh, TTC7A / RFU, TMEM135 / Fold change vs veh, TMEM135 / RFU, DEPTOR / Fold change vs veh, DEPTOR / RFU, CPM / Fold change vs veh, CPM / RFU, DNAJB6 / Fold change vs veh, DNAJB6 / RFU, CACNA2D3 / Fold change vs veh, CACNA2D3 / RFU, DTX4 / Fold change vs veh, DTX4 / RFU, TFCP2 / Fold change vs veh, TFCP2 / RFU, GMCL1 /// GMCL1P1 / Fold change vs veh, GMCL1 /// GMCL1P1 / RFU, AEBP2 / Fold change vs veh, AEBP2 / RFU, SNHG1 /// SNORD22 /// SNORD25 /// SNORD26 /// SNORD27 /// SNORD28 /// SNORD29 /// SNORD31 / Fold change vs veh, SNHG1 /// SNORD22 /// SNORD25 /// SNORD26 /// SNORD27 /// SNORD28 /// SNORD29 /// SNORD31 / Fold change (Aza/veh), C12orf56 (ProbeSet 11735607_a_at) / Fold change (ACY-1035/veh), C12orf56 (ProbeSet 11735607_a_at) / Fold change (Aza/veh), FGFR1OP (ProbeSet 11751329_s_at) / Fold change (ACY-1035/veh), FGFR1OP (ProbeSet 11751329_s_at) / Fold change (Aza/veh), VPS36 (ProbeSet 11739960_a_at) / Fold change (ACY-1035/veh), VPS36 (ProbeSet 11739960_a_at) / RFU SYPL1 (11715823_x_at) / Fold change /veh SYPL1 (11715823_x_at) / RFU IGFBP7 (11715501_s_at) / Fold change /veh IGFBP7 (11715501_s_at) / RFU REEP3 (11722064_at) / Fold change /veh REEP3 (11722064_at) / RFU IGLL1 (11728026_x_at) / Fold change /veh IGLL1 (11728026_x_at): dose or concentration left out as unconfirmed. Conditions: MV-4-11 cells, 48 hours.

Regarding `Nc1ncn([C@@H]2O[C@H](CO)[C@@H](O)[C@H]2O)c(=O)n1` [azacitidine], the “Fold change /veh NR4A2 (11747474_a_at)” value was 0.97.

The values are drawn from PMC5218480 (PLoS ONE, 2017).
